Measured values taken from patent US11426422B2, “SHP2 inhibitors and methods of use thereof” (Research Development Foundation, priority 2018, dated 2022).

Columns and labels:
[1] = test system: IR in liver sections; assay: IR staining at the PM in liver sections of HFD-fed mice; type: in vivo; conditions: 60 mg/kg oral for 6 days
Method: (§1) (FIG. 3A) Glucose tolerance test in 14 h fasted male mice fed a HFD for 5 weeks. […] At 1 day after drug treatment, glucose tolerance test was performed. Mean±SEM. (FIG. 3B) Insulin tolerance test of mice treated as described in FIG. 3A. Mean±SEM. […] The liver sections were stained with anti-IR (red) and DAPI (blue). Scale bars, 5 μm. (FIG. 3D) Quantification of the ratios of PM and IC IR signals of the livers in C (mean±SD; *p<0.0001). […] Cell lysates were blotted with the indicated antibodies.
The IR staining at the PM in liver sections from mice fed with HFD was weak, and insulin stimulation further reduced it and caused IR endocytosis (FIGS. 3C and D).
The fixation, histological analysis, and immunohistochemistry of mouse tissues were performed as described previously (Choi et al., 2016). For human patient sample analysis, the deparaffinized sections were subjected to antigen retrieval with 10 mM sodium citrate (pH 6.0), incubated with 0.3% H2O2, blocked with 0.3% BSA, and then incubated first with anti-IR (CT3, Millipore®, 1:100) and anti-ZO1 (Thermo Scientific®, 1:200) antibodies and then with secondary antibodies (AlexaFluor® 568 goat anti-mouse and AlexaFluor® 488 goat anti-rabbit; Molecular Probes®). […] The total cell numbers and numbers of IR PM-positive cells were counted at least twice for individual images. Over 100 cells were analyzed for each patient samples. […]

[2] = test system: primary hepatocytes; assay: insulin signaling in primary hepatocytes (quantitative Western blot); type: cell-based, mice; conditions: 10 μM for 2 h, then 100 nM insulin
Method: as §1
To examine the effect of SHP2 inhibition on insulin signaling in freshly isolated primary hepatocytes, the activating phosphorylation of IR (pY1189/1190), AKT (pT308), and ERK1/2 (pT202/Y204, pERK1/2) in the hepatocytes was monitored (FIG. 3E and FIG. 8B).
Primary hepatocytes were isolated from 2-month-old female mice with a standard two-step collagenase perfusion procedure. Cells were plated on collagen-coated dishes and incubated in attachment medium (Williams' E Medium supplemented with 5% (v/v) FBS, 10 nM insulin, 10 nM dexamethasone, and 1% (v/v) penicillin/streptomycin). After 2-4 h, the medium was changed to low-glucose DMEM supplemented with 5% (v/v) FBS, 10 nM dexamethasone, 10 nM insulin, 100 nM triiodothyronine, and 1% (v/v) penicillin/streptomycin.
Cells were incubated with the cell lysis buffer [50 mM HEPES (pH 7.4), 150 mM NaCl, 10% (v/v) Glycerol, 1% (v/v) Triton X-100, 1 mM EDTA, 100 mM sodium fluoride, 2 mM sodium orthovanadate, 20 mM sodium pyrophosphate, 0.5 mM dithiothreitol (DTT), 2 mM phenylmethylsulfonyl fluoride (PMSF)] supplemented with protease inhibitors (Roche®) and PhosSTOP™ (Roche®) on ice for 1 h. The cell lysates were cleared by centrifugation and incubated with antibody-conjugated beads. The beads were washed, and the bound proteins were eluted with the SDS sample buffer and analyzed by SDS-PAGE and Western blotting. For quantitative Western blots, anti-rabbit immunoglobulin G (IgG) (H+L) (Dylight 800 or 680 conjugates) and anti-mouse IgG (H+L) (Dylight 800 or 680 conjugates) (Cell Signaling) were used as secondary antibodies. […]

SMILES: CC1(N)CCN(c2cnc(-c3cccc(Cl)c3Cl)c(N)n2)CC1 [SHP099]
- insulin-activated IR endocytosis in liver ([1]; 5 U insulin via inferior vena cava): blocked insulin-activated IR endocytosis
- IR signal at the PM in liver ([1]; in the absence of insulin): elevated the IR signal at the PM
- activation of the MAPK pathway by insulin (pERK1/2) [2]: inhibited the activation of the MAPK pathway by insulin
- insulin-triggered activating phosphorylation of AKT (pT308) [2]: significantly increased and prolonged
- insulin-triggered activating phosphorylation of IR (pY1189/1190) [2]: significantly increased and prolonged
